Reference: patent US20240108011A1, “HERBICIDAL COMBINATIONS AND COMPOSITIONS AND METHODS FOR TREATING WEEDS USING THE SAME” (UPL Corporation Limited, priority 2021, published 2024)

Assays:
Format in all cases: in vivo
Borreria verticilata = assay: Greenhouse trial, weed control efficacy on Borreria verticilata; conditions: 7 DAA
Procedure: In this example, synergy from the combination of L-glufosinate ammonium (150 gai/ha) and 2,4-D choline (137 gai/ha) on Borrelia verticilata was determined using the calculated percentage efficacy after 7 days of application (DAA). The results are recorded in Table 1 below:
In this example, synergy of the combination of L-glufosinate ammonium (150 gai/ha) and 2,4-D choline (228 gai/ha) on Borrelia verticilata was determined using the calculated percentage efficacy after 7 days of application (DAA).

Eleusine indica = assay: Greenhouse trial, weed control efficacy on Eleusine indica; conditions: Table 3
Procedure: In this example, synergy of the combination of L-glufosinate ammonium (150 gai/ha) and 2,4-D choline (228 gai/ha) on Eleusine indica was determined using the calculated percentage efficacy after 7, 14, 21 and 28 days of application (DAA).

Euphorbia heterophylla = assay: Greenhouse trial, weed control efficacy on Euphorbia heterophylla
Procedure: In this example, synergy of the combination of L-glufosinate ammonium (150 gai/ha) and 2,4-D choline (137 gai/ha) Euphorbia heterophylla was determined using the calculated percentage efficacy after 7, 14, 21 days of application (DAA). The results are recorded in the Table 4 below:
In this example, synergy of using the combination of L-glufosinate ammonium (150 gai/ha) and 2,4-D choline (228 gai/ha) on Euphorbia heterophylla was determined using the calculated percentage efficacy after 14, 21 days of application (DAA).

CP(=O)(O)CC[C@H](N)C(=O)O.N [L-glufosinate ammonium, ammonium (2S)-2-amino-4-(methylphosphinato)butyric acid]
Observed efficacy (%) of L-glufosinate ammonium (150 gai/ha) (Borreria verticilata; Table 1): 65% | Observed efficacy (%) of L-glufosinate ammonium (150 gai/ha) (Borreria verticilata; Table 2): 65% | Observed efficacy (%) of L-glufosinate ammonium (150 gai/ha) (Eleusine indica; 7 DAA): 70% | Observed efficacy (%) of L-glufosinate ammonium (150 gai/ha) (Eleusine indica; 14 DAA): 65% | Observed efficacy (%) of L-glufosinate ammonium (150 gai/ha) (Eleusine indica; 21 DAA): 60% | Observed efficacy (%) of L-glufosinate ammonium (150 gai/ha) (Eleusine indica; 28 DAA): 50% | Observed efficacy (%) of L-glufosinate ammonium (150 gai/ha) (Euphorbia heterophylla; Table 4, 7 DAA): 95% | Observed efficacy (%) of L-glufosinate ammonium (150 gai/ha) (Euphorbia heterophylla; Table 4, 14 DAA): 98% | Observed efficacy (%) of L-glufosinate ammonium (150 gai/ha) (Euphorbia heterophylla; Table 4, 21 DAA): 98% | Observed efficacy (%) of L-glufosinate ammonium (150 gai/ha) (Euphorbia heterophylla; Table 5, 14 DAA): 98% | Observed efficacy (%) of L-glufosinate ammonium (150 gai/ha) (Euphorbia heterophylla; Table 5, 21 DAA): 98%

C[N+](C)(C)CCO.O=C([O-])COc1ccc(Cl)cc1Cl [2,4-D choline]
Observed efficacy (%) of 2,4-D choline (137 gai/ha) (Borreria verticilata; Table 1, 137 gai/ha): 30% | Observed efficacy (%) of 2,4-D choline (228 gai/ha) (Borreria verticilata; Table 2, 228 gai/ha): 30% | Observed efficacy (%) of 2,4-D choline (228 gai/ha) (Eleusine indica; 7 DAA): 10% | Observed efficacy (%) of 2,4-D choline (228 gai/ha) (Eleusine indica; 14 DAA): 10% | Observed efficacy (%) of 2,4-D choline (228 gai/ha) (Eleusine indica; 21 DAA): 10% | Observed efficacy (%) of 2,4-D choline (228 gai/ha) (Eleusine indica; 28 DAA): 5% | Observed efficacy (%) of 2,4-D choline (137 gai/ha) (Euphorbia heterophylla; Table 4, 7 DAA): 35% | Observed efficacy (%) of 2,4-D choline (137 gai/ha) (Euphorbia heterophylla; Table 4, 14 DAA): 30% | Observed efficacy (%) of 2,4-D choline (137 gai/ha) (Euphorbia heterophylla; Table 4, 21 DAA): 25% | Observed efficacy (%) of 2,4-D choline (228 gai/ha) (Euphorbia heterophylla; Table 5, 14 DAA): 30% | Observed efficacy (%) of 2,4-D choline (228 gai/ha) (Euphorbia heterophylla; Table 5, 21 DAA): 30%
